According to article PMC5028780, “Receptor and transporter binding and activity profiles of albiflorin extracted from Radix paeoniae Alba” (Scientific Reports, 2016):

Legend:
5-HT1D = 5-HT1D (Homo sapiens, UniProt P28221); assay: CNS receptor binding, 5-HT1D; details: HEK293 cell line, [3H]-LSD(10)
Procedure: (§1) Albiflorin (10 μM) was tested for numerous other potential binding targets by using standard receptor binding procedures. The tested targets included the following receptors: D1, D2, D3, D4, D5, 5-HT1A, 5-HT1B, 5-HT1D, 5-HT2a, 5-HT2C, 5-HT3, 5-HT5A, 5-HT6, 5-HT7, α1A, α1B, α2A, β1, M1, M2, M3, M4, M5, μ, κ, δ, A1, A2A, H1, H2, H3, H4.

hSERT = molecular target: T1, hSERT (Homo sapiens, UniProt P31645); assay type: binding
T1 construct: expressed in transfected cells
T1 sequence (P31645 whole entry): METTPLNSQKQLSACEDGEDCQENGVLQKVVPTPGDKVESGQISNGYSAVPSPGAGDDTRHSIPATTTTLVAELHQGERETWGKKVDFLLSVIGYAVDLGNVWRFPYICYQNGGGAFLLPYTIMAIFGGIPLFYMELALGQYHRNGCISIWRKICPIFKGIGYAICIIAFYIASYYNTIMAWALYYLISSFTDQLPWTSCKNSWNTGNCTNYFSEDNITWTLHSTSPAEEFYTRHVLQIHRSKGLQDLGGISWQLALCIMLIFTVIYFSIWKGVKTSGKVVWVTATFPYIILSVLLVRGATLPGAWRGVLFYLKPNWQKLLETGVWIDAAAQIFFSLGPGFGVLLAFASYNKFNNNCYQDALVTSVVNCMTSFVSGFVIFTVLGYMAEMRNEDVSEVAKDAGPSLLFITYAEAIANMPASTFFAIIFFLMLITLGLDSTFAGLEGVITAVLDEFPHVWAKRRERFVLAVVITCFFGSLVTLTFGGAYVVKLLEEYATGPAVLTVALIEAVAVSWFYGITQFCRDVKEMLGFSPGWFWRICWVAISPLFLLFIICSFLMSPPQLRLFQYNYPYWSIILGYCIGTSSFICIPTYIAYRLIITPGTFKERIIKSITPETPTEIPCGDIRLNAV
Procedure: (§2) Membranes were prepared from HEK293 cells stably expressing hSERT, hNET, or hDAT as described previously. Briefly, [^3H]-citalopram (1 nM), [^3H]-nisoxetine (2 nM), or [^3H]-WIN35,428 (2 nM) was used to label human 5-HT, NE, or DA transporters, respectively.
(§3) All data for inhibition curves were analysed by nonlinear regression using Prism software (GraphPad Software Inc., San Diego, CA) to determine IC50 values. For the microdialysis experiments, two-way repeated-measures ANOVA followed by Tukey’s test was used to compare the percentage increase over baseline between groups, time and treatment as independent factors, and time as the repeated factor.

H1 = H1 (Homo sapiens, UniProt P35367); assay: CNS receptor binding, histamine H1; details: CHO cell line, [3H]-pyrilamine(2)
Chain of H1 (P35367 whole entry): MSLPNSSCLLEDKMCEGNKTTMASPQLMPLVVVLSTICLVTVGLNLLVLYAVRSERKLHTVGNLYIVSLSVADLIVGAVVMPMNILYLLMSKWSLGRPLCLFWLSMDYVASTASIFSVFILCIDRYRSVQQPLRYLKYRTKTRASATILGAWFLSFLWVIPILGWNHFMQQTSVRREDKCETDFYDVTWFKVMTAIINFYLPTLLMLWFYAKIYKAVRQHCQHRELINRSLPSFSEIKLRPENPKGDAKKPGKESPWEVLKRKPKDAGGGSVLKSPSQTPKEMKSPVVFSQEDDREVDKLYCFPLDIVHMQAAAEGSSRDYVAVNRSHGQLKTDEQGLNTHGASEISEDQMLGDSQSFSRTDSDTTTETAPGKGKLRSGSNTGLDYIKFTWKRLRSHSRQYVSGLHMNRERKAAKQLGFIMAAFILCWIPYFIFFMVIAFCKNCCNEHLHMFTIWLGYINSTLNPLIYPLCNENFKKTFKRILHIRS
Procedure: as §1

5-HT6 = 5-HT6 (Homo sapiens, UniProt P50406); assay: CNS receptor binding, 5-HT6; details: HEK293 cell line, [3H]-LSD(1)
Chain of 5-HT6 (P50406 whole entry): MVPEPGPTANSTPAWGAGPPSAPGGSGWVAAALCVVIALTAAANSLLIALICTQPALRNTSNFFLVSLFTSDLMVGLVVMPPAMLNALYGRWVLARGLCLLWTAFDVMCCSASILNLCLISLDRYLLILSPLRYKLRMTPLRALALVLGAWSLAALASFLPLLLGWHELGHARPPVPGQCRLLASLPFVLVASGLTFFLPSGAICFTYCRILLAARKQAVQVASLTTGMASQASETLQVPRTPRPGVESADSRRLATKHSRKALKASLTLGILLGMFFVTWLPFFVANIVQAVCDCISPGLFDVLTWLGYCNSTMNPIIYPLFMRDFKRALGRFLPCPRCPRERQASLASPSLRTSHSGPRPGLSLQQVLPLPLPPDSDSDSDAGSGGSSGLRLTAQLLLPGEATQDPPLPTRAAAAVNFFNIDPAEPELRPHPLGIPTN
Procedure: as §1

[1] = test system: DA levels in the hypothalamus; assay: In vivo microdialysis, extracellular DA; details: oral, 3.5, 7.0 and 14.0 mg/kg, rats
Procedure: (§4) The effect of albiflorin on extracellular monoamine levels in […] was determined using methods previously described. Microdialysis probes (CMA Microdialysis) with an active membrane surface of 2 mm were perfused with artificial cerebrospinal fluid (125 mM NaCl, 3 mM KCl, 0.75 mM MgSO4 and 1.2 mM CaCl2, pH 7.4) in situ for at least 18 h before experimentation. The microdialysis probe was then implanted via the guide cannula into the hypothalamus and perfused with artificial cerebral spinal fluid at a flow rate of 1 μL/min. A 3-h stabilisation period was allowed after probe implantation, and dialysate sampling was conducted according to previously described methods. […] All subsequent values were expressed as a percentage of the mean preinjection value (i.e., percentage of baseline). […] For a minimum of 3 h after albiflorin administration, dialysis samples were collected every 20 min and analysed to determine the levels of NE, 5-HT and DA. […] A 20-μL sample from the hypothalamus was analysed for 5-HT, NE and DA content using methods described previously. […] External standard curves were used to quantify the amounts of NE, 5-HT and DA in each sample, which was calculated using the area under the curve.
(§5) All data for inhibition curves were analysed by nonlinear regression using Prism software (GraphPad Software Inc., San Diego, CA) to determine IC50 values. […]

sucrose consumption = test system: sucrose consumption; design: method as in PMID 26719283; details: rats; chronic unpredicted mild stress; cited from earlier work
5-HT2a = 5-HT2a (Homo sapiens, UniProt P28223); assay: CNS receptor binding, 5-HT2a; details: HEK293 cell line, [3H]-ketanserin(1)
Chain of 5-HT2a (P28223 whole entry): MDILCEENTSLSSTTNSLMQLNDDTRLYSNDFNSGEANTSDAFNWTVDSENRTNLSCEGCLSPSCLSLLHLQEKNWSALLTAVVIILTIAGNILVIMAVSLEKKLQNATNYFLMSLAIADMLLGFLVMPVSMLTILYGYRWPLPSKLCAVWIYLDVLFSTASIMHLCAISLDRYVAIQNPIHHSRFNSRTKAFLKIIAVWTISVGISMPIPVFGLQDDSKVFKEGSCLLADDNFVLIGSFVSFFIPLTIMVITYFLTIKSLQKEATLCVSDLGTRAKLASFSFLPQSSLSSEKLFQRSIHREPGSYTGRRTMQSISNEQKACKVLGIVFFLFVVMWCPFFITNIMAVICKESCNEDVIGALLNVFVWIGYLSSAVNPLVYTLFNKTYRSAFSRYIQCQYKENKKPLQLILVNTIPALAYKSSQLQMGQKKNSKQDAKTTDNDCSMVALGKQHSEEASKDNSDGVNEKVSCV
Procedure: as §1

hNET = molecular target: T2, hNET (Homo sapiens, UniProt P23975); assay: Human monoamine transporter binding assay, NET
T2 construct: expressed in transfected cells
T2 sequence (P23975 whole entry): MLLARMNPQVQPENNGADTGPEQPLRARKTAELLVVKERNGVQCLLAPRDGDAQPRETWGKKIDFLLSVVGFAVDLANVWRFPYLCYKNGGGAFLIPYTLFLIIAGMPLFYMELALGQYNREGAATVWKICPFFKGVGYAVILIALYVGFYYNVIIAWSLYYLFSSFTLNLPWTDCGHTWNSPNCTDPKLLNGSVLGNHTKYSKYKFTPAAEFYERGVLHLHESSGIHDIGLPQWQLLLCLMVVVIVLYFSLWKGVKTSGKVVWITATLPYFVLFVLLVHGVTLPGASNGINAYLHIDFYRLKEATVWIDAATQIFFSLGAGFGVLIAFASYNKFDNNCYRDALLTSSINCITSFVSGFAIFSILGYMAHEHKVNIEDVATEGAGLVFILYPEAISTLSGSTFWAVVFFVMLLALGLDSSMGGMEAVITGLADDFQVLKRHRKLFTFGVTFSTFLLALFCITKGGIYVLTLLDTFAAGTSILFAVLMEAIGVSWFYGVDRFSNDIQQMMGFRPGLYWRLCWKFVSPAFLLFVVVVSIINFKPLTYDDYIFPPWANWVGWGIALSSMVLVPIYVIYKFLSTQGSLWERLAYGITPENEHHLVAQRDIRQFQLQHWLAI
Procedure: as §2, §3

α1A = α1A (Rattus norvegicus, UniProt P43140); assay: CNS receptor binding, NE receptor α1A; details: Rat Frontal cortex, [3H]-parzosin(1)
Chain of α1A (P43140 whole entry): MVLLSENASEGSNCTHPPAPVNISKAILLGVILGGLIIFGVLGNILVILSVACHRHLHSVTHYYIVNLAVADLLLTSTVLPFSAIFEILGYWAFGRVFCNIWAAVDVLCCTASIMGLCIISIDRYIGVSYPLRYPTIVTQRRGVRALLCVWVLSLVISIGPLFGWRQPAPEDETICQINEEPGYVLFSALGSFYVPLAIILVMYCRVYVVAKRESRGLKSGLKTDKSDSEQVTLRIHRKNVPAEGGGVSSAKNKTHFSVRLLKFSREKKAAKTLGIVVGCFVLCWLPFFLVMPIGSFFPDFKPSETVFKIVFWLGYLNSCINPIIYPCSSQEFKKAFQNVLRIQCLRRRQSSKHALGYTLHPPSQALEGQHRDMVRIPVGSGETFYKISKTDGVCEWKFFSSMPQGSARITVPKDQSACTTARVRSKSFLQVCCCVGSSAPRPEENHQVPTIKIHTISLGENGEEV
Procedure: as §1

5-HT2C = 5-HT2C (Homo sapiens, UniProt P28335); assay: CNS receptor binding, 5-HT2C; details: CHO cell lines, [3H]-mesulergine(1)
Chain of 5-HT2C (P28335 33-458): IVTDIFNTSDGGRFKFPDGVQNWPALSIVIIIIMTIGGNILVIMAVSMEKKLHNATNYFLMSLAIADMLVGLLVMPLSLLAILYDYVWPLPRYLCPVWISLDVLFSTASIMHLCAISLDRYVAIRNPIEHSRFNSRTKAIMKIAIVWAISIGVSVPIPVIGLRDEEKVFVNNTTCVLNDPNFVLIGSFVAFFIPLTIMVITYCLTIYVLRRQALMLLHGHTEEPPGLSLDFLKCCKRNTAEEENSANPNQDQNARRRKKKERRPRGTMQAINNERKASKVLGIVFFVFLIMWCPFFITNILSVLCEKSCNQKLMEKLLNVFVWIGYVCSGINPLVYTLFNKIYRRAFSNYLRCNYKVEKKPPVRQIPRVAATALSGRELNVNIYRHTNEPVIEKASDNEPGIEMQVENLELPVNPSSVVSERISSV
Procedure: as §1

5-HT1A = 5-HT1A (Homo sapiens, UniProt P08908); assay: CNS receptor binding, 5-HT1A; details: HEK293 cell line, [3H]-8-OH-DPAT(2)
Chain of 5-HT1A (P08908 whole entry): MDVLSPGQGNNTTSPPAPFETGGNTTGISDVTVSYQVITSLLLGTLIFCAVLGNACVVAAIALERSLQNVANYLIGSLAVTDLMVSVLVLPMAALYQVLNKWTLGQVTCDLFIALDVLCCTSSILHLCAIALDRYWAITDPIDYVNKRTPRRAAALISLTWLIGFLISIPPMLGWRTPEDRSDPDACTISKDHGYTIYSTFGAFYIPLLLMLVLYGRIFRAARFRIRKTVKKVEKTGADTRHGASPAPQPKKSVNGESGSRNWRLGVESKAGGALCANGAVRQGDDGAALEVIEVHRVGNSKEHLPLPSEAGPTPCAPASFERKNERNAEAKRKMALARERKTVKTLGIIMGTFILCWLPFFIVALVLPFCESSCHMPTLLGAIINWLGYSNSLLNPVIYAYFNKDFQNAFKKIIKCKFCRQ
Procedure: as §1

hypothalamic NE levels = assay: In vivo microdialysis, extracellular NE; design: species or system rats
Procedure: as §4, §5

rat DAT = molecular target: T3, rat DAT (Rattus norvegicus, UniProt P23977); details: [3H]-win35,428, Striatum, read-out: Ki values, DAT binding
T3 construct: from tissue; host or cells: Sprague-Dawley rat brain membranes (probably striatum)
Procedure: Male Sprague–Dawley rats were killed by cervical dislocation, and their brains were rapidly removed and then dissected on ice. The cerebral cortex, hypothalamus and striatum were homogenised in 4 mL of assay buffer (50 mM Tris–HCl buffer, pH 7.4.) and centrifuged at 40,000× g for 10 min at 4 °C. The pellets were centrifuged twice at 20,000× g and then resuspended in 4 mL of assay buffer. […] Bio-Rad protein assay reagents (1:5 ratio) were used to analyse the protein concentration of the synaptosomal suspension.
as §3

M3 = M3 (Homo sapiens, UniProt P20309); assay: CNS receptor binding, muscarinic M3; details: CHO cell line, [3H]-NMS(1)
Chain of M3 (P20309 whole entry): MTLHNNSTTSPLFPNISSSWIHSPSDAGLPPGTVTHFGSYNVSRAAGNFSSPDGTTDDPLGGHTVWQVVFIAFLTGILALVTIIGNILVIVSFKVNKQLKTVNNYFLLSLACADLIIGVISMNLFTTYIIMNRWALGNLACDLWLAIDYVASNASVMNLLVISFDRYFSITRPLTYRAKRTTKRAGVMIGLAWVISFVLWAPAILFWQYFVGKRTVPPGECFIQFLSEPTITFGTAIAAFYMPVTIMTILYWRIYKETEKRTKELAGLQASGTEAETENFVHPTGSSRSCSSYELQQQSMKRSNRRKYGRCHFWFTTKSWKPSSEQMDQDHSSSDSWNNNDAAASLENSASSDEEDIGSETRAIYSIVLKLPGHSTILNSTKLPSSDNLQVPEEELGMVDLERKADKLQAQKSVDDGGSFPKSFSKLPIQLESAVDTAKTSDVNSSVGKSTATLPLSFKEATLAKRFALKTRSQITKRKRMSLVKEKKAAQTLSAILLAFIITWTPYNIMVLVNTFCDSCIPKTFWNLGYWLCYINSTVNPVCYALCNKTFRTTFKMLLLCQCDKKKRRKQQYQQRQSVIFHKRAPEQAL
Procedure: as §1

hDAT = molecular target: T4, hDAT (Homo sapiens, UniProt Q01959); details: [3H]-win35,428, HEK293 cell line, read-out: Ki values, DAT binding
T4 construct: expressed in transfected cells
Procedure: as §2, §3

[2] = read-out: IC50 values for albiflorin

Chain of 5-HT1D (P28221 whole entry): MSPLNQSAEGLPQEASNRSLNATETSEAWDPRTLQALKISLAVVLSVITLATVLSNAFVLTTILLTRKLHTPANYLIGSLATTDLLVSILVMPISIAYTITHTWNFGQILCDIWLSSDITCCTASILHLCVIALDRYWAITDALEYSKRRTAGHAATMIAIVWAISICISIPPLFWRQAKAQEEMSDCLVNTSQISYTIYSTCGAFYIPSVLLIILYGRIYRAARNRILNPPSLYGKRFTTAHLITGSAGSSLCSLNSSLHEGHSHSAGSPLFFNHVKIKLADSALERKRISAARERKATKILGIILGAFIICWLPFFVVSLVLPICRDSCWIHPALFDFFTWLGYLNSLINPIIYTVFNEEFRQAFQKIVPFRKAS

## C[C@]12C[C@@H](O)[C@@H]3C[C@@]1(O[C@@H]1O[C@H](CO)[C@@H](O)[C@H](O)[C@H]1O)[C@@]3(COC(=O)c1ccccc1)C(=O)O2 [albiflorin, Albiflorin]
5-HT1D
  % Inhibition of binding at 10 μM albiflorin: 22.36%
5-HT1D; [2]
  IC50: > 10 µM
hSERT; Human, [3H]-citalopram, HEK293 cell line, read-out: Ki values, SERT binding
  Ki: 0.00645 ± 0.00048 µM
hSERT; albiflorin vs fluoxetine
  affinity relative to fluoxetine in human SERT binding assay: 17 fold
H1
  % Inhibition of binding at 10 μM albiflorin: 6.33%
H1; [2]
  IC50: > 10 µM
5-HT6
  % Inhibition of binding at 10 μM albiflorin: 22.36%
5-HT6; [2]
  IC50: > 10 µM
[1]
  effect on DA levels in the hypothalamus: not elevated
Sucrose consumption
  antidepressant-like effect, sucrose consumption: reversal of chronic unpredicted mild stress-induced inhibition of sucrose consumption
5-HT2a
  % Inhibition of binding at 10 μM albiflorin: 55.36%
5-HT2a; [2]
  IC50: 4 ± 0.113 µM
hNET; Human, [3H]-nisoxetine, HEK293 cell line
  Ki: 0.00123 ± 7e-05 µM
hNET; albiflorin vs desipramine
  affinity relative to desipramine in hNET binding assay: 4 fold
α1A
  % Inhibition of binding at 10 μM albiflorin: 56.33%
α1A; [2]
  IC50: 4.71 ± 0.113 µM
5-HT2C
  % Inhibition of binding at 10 μM albiflorin: 33.66%
5-HT2C; [2]
  IC50: > 10 µM
5-HT1A
  % Inhibition of binding at 10 μM albiflorin: 69.60%
5-HT1A; [2]
  IC50: 4 ± 0.662 µM
Hypothalamic NE levels; acute oral administration, 3.5, 7.0, 14.0 mg/kg, freely moving rats
  effect on hypothalamic NE levels: dose- and time-dependent increase
Hypothalamic NE levels; oral, rats, microdialysis
  time of peak NE increase after administration: 1 h
Rat DAT
  Ki: 3.656 ± 0.0254 µM
M3
  % Inhibition of binding at 10 μM albiflorin: 25.66%
M3; [2]
  IC50: > 10 µM
hDAT
  Ki: 1.48 ± 0.0333 µM
